Test results reported in article PMC7265341, “Quantifying CDK inhibitor selectivity in live cells” (Nature Communications, 2020).
Read-outs that look alike come from different tables or passages of the source.

Key:
[1] = target: CDK1/Cyclin E1 (Homo sapiens, UniProt P06493); test: NanoBRET live-cell target engagement, CDK1-NanoLuc/Cyclin E1 in HEK-293; assay type: binding
[2] = target: CDK2/Cyclin E1 (Homo sapiens, UniProt P24941); test: NanoBRET live-cell target engagement, CDK2-NanoLuc/Cyclin E1 in HEK-293; assay type: binding; conditions: CDK2/E1
[3] = target: CDK3/Cyclin E1 (Homo sapiens, UniProt Q00526); test: NanoBRET live-cell target engagement, CDK3-NanoLuc/Cyclin E1 in HEK-293; assay type: binding; conditions: CDK3/E1
[4] = target: CDK4/Cyclin D1 (Homo sapiens, UniProt P11802); test: NanoBRET live-cell target engagement, NanoLuc-CDK4/Cyclin D1 in HEK-293; assay type: binding; conditions: CDK4/D1
[5] = target: CDK5/CDK5R1 (Homo sapiens, UniProt Q00535); test: NanoBRET live-cell target engagement, CDK5-NanoLuc/CDK5R1 in HEK-293; assay type: binding; conditions: CDK5/CDK5R1
[6] = target: CDK6/Cyclin D1 (Homo sapiens, UniProt Q00534); test: NanoBRET live-cell target engagement, NanoLuc-CDK6/Cyclin D1 in HEK-293; assay type: binding; conditions: CDK6/D1
[7] = target: CDK7 (Homo sapiens, UniProt P50613); test: NanoBRET live-cell target engagement, NanoLuc-CDK7 in HEK-293; assay type: binding; conditions: CDK7
[8] = target: CDK8/Cyclin C (Homo sapiens, UniProt P49336); test: NanoBRET live-cell target engagement, NanoLuc-CDK8/Cyclin C in HEK-293; assay type: binding; conditions: CDK8/C
[9] = target: CDK9/Cyclin K (Homo sapiens, UniProt P50750); test: NanoBRET live-cell target engagement, NanoLuc-CDK9/Cyclin K in HEK-293; assay type: binding; conditions: CDK9/K, 10µM
[10] = target: CDK11B/Cyclin L2 (Homo sapiens, UniProt P21127); test: NanoBRET live-cell target engagement, CDK11B-NanoLuc/Cyclin L2 in HEK-293; assay type: binding; conditions: CDK11b/L2, 10µM
[11] = target: CDK12/Cyclin K (Homo sapiens, UniProt Q9NYV4); test: NanoBRET live-cell target engagement, CDK12-NanoLuc/Cyclin K in HEK-293; assay type: binding; conditions: CDK12/K, 10µM
[12] = target: CDK13/Cyclin K (Homo sapiens, UniProt Q14004); test: NanoBRET live-cell target engagement, CDK13-NanoLuc/Cyclin K in HEK-293; assay type: binding; conditions: CDK13/K, 10µM
[13] = target: CDK14/Cyclin Y (Homo sapiens, UniProt O94921); test: NanoBRET live-cell target engagement, CDK14-NanoLuc/Cyclin Y in HEK-293; assay type: binding; conditions: CDK14/Y
[14] = target: CDK15/Cyclin Y (Homo sapiens, UniProt Q96Q40); test: NanoBRET live-cell target engagement, NanoLuc-CDK15/Cyclin Y in HEK-293; assay type: binding; conditions: CDK15/Y
[15] = target: CDK16/Cyclin Y (Homo sapiens, UniProt Q00536); test: NanoBRET live-cell target engagement, CDK16-NanoLuc/Cyclin Y in HEK-293; assay type: binding; conditions: CDK16/Y
[16] = target: CDK17/Cyclin Y (Homo sapiens, UniProt Q00537); test: NanoBRET live-cell target engagement, CDK17-NanoLuc/Cyclin Y in HEK-293; assay type: binding; conditions: CDK17/Y
[17] = target: CDK18/Cyclin Y (Homo sapiens, UniProt Q07002); test: NanoBRET live-cell target engagement, CDK18-NanoLuc/Cyclin Y in HEK-293; assay type: binding; conditions: CDK18/Y
[18] = target: CDK20/Cyclin H (Homo sapiens, UniProt Q8IZL9); test: NanoBRET live-cell target engagement, NanoLuc-CDK20/Cyclin H in HEK-293; assay type: binding; conditions: CDK20/H; 10µM
[19] = target: CDK19/Cyclin C (Homo sapiens, UniProt Q9BWU1); test: NanoBRET live-cell target engagement, NanoLuc-CDK19/Cyclin C in HEK-293
[20] = target: CDK10/Cyclin L2 (Homo sapiens, UniProt Q15131); test: NanoBRET live-cell target engagement, CDK10-NanoLuc/Cyclin L2 in HEK-293; conditions: CDK10/L2
[21] = n=3 average ± SEM, n=2 average to 2 significant figures, read-out: IC50 (nM) Average*
[22] = read-out: IC50 (nM) Replicate 1
[23] = read-out: IC50 (nM) Replicate 2

Sequence of CDK9/Cyclin K (P50750 whole entry): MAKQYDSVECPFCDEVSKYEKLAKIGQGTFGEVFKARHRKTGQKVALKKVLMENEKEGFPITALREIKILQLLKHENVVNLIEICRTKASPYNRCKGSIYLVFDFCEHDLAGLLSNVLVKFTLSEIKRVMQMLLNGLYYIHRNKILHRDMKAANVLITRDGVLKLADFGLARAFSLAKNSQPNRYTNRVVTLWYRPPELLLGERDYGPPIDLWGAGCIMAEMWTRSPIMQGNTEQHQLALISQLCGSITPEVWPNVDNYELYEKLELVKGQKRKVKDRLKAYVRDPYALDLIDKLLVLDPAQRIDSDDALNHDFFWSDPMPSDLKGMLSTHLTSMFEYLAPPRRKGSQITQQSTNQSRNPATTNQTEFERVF
Sequence of CDK9/Cyclin K (O75909 whole entry partner): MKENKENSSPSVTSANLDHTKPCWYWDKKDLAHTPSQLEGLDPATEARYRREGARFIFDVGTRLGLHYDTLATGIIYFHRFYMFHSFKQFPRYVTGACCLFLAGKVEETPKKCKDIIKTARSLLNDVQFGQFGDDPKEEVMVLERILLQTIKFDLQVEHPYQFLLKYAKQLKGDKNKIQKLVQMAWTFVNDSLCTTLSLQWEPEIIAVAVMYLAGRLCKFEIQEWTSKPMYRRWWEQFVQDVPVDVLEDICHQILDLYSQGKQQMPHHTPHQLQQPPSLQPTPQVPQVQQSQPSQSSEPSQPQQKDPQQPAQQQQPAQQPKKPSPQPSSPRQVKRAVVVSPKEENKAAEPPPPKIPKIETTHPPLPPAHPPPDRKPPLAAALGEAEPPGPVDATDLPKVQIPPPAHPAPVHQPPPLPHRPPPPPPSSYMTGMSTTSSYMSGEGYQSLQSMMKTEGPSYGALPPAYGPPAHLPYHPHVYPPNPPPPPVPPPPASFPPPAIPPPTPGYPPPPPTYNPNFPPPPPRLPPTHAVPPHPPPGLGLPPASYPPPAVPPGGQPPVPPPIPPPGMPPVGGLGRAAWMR
Sequence of CDK19/Cyclin C (Q9BWU1 whole entry): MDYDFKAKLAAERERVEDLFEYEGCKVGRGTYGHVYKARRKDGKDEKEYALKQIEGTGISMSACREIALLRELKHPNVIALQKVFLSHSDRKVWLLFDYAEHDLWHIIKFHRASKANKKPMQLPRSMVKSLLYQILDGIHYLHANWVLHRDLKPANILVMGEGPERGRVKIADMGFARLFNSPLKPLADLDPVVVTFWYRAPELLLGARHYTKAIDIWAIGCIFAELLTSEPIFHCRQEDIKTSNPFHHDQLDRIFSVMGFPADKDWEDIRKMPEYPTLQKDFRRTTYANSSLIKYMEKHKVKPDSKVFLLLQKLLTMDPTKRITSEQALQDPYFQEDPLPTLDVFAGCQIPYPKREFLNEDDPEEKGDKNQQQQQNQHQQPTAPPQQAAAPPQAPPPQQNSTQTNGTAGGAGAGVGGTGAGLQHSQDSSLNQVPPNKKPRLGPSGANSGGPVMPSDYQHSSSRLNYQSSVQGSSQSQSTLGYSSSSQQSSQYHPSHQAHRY
Sequence of CDK19/Cyclin C (P24863 whole entry partner): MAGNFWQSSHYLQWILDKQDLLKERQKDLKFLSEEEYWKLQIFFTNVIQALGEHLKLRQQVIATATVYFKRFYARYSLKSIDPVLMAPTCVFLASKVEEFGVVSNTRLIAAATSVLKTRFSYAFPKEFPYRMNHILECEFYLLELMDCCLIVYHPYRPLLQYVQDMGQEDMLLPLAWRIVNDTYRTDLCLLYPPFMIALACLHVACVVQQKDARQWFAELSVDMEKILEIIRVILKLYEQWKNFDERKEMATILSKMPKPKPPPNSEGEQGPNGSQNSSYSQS
Sequence of CDK11B/Cyclin L2 (P21127 1-782 isoform P21127-2): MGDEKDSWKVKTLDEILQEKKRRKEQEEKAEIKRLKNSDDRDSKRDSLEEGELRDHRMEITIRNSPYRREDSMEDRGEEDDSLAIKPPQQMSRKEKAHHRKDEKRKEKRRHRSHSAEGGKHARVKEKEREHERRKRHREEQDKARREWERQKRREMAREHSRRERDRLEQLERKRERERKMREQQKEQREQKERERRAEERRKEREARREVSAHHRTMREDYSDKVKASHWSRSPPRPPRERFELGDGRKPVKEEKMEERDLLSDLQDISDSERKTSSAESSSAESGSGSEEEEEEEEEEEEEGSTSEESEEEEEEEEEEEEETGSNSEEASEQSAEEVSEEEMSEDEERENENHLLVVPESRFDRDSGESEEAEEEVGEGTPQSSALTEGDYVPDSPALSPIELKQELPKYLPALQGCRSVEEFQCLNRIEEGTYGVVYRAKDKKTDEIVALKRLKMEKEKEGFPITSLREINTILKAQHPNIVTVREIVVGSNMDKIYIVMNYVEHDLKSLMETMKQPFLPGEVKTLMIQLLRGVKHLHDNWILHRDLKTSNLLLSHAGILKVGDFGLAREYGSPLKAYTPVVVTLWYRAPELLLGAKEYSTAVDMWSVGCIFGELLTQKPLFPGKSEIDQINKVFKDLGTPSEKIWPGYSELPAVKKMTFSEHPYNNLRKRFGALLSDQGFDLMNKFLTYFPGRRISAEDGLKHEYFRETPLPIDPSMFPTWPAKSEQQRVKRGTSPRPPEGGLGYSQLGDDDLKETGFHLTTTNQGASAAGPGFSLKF
Sequence of CDK5/CDK5R1 (Q00535 whole entry): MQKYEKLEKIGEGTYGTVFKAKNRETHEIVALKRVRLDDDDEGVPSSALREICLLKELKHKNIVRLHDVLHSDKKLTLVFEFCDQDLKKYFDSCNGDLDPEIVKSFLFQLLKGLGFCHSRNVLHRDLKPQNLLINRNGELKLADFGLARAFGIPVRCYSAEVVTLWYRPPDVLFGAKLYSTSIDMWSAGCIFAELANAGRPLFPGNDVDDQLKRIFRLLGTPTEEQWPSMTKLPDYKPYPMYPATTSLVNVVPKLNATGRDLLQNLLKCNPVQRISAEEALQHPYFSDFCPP
Sequence of CDK5/CDK5R1 (Q15078 whole entry partner): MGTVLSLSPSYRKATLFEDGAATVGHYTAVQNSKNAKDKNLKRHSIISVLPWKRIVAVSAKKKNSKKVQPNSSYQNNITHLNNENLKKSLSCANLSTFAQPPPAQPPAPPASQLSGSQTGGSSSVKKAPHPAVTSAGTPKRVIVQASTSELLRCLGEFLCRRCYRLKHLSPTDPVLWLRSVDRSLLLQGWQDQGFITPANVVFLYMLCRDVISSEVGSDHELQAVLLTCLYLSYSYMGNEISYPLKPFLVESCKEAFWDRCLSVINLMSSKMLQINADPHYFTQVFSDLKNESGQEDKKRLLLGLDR
Sequence of CDK6/Cyclin D1 (Q00534 whole entry): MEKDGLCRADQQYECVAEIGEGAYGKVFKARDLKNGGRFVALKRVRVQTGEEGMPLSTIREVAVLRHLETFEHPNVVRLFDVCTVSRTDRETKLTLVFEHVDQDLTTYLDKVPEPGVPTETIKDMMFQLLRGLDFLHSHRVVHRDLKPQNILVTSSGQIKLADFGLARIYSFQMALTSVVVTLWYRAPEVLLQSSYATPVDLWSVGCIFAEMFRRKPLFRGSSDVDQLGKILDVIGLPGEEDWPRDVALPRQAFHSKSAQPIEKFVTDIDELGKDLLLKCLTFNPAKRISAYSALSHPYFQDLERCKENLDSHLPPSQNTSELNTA
Sequence of CDK6/Cyclin D1 (P24385 whole entry partner): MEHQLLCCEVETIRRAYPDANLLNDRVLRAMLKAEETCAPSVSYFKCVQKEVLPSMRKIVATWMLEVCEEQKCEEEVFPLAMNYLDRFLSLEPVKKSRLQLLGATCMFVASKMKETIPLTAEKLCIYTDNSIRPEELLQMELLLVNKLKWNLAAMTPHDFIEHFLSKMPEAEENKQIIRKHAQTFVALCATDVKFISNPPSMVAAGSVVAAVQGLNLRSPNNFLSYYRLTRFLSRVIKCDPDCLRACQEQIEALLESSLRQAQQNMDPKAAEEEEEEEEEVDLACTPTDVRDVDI
Sequence of CDK16/Cyclin Y (Q00536 whole entry): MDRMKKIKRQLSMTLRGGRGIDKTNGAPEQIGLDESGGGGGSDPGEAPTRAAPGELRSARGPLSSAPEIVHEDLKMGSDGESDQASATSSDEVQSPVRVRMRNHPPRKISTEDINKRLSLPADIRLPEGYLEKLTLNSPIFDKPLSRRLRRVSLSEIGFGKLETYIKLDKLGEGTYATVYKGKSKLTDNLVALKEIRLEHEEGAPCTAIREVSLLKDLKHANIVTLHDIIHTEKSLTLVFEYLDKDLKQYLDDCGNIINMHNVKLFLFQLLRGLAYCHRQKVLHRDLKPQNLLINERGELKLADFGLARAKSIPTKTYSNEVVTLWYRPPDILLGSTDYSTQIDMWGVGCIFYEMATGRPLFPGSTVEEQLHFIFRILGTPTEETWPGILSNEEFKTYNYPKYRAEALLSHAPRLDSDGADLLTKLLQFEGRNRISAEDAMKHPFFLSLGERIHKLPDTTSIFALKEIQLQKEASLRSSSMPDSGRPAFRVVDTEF
Sequence of CDK16/Cyclin Y (Q8ND76 whole entry partner): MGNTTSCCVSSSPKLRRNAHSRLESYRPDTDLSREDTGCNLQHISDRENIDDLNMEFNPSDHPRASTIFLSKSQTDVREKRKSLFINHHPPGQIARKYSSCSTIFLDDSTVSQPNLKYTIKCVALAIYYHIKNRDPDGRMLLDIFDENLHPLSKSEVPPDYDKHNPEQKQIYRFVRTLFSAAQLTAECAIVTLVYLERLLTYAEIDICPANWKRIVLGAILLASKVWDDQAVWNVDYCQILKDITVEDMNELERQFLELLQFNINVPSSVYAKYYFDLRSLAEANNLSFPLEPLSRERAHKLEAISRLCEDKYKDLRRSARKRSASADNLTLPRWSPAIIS
Sequence of CDK7 (P50613 whole entry): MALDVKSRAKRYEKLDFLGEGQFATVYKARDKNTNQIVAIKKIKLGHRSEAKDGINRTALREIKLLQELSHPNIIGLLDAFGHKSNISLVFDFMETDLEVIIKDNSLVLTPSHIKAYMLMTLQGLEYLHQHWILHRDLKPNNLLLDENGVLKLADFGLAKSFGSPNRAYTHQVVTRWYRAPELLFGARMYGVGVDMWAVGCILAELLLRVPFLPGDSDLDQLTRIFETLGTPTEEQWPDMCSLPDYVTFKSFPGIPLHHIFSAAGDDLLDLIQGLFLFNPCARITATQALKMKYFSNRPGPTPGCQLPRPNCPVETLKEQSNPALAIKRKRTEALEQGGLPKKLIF

Structure (SMILES): CNC1CCN(C(=O)c2ccc(Nc3ncc(F)c(-c4cnc(C)n4C(C)C)n3)cc2)C1 (centres unmarked) [AZD5597]
- Inhibition at 10µM (%) Replicate 1 ([1]; CDK1/E1, 10µM): 93.8%
- Inhibition at 10µM (%) Replicate 2 ([1]; CDK1/E1, 10µM): 95.4%
- Inhibition at 10µM (%) Average ([1]; CDK1/E1, 10µM, average of replicates): 94.6%
- IC50 ([1]; CDK1/E1, n=3 average ± SEM, n=2 average to 2 significant figures, read-out: IC50 (nM) Average*): 9 nM
- IC50 ([1]; CDK1/E1, read-out: IC50 (nM) Replicate 1): 9 nM
- IC50 ([1]; CDK1/E1, read-out: IC50 (nM) Replicate 2): 9 nM
- IC50 ([1]; live HEK-293, 2 h, mean ± S.E.M. (n=3) or mean (n=2), read-out: IC50 for CDK/cyclin complexes, CDK1/E1): 9 nM
- Inhibition at 10µM (%) Replicate 1 ([2]; 10µM): 99.9%
- Inhibition at 10µM (%) Replicate 2 ([2]; 10µM): 99.7%
- Inhibition at 10µM (%) Average ([2]; 10µM, average of replicates): 99.8%
- IC50 [2, 21]: 6.6 nM
- IC50 [2, 22]: 6.7 nM
- IC50 [2, 23]: 6.4 nM
- Inhibition at 10µM (%) Replicate 1 ([3]; 10µM): 99.1%
- Inhibition at 10µM (%) Replicate 2 ([3]; 10µM): 98.8%
- Inhibition at 10µM (%) Average ([3]; 10µM, average of replicates): 98.9%
- IC50 [3, 21]: 3.4 nM
- IC50 [3, 22]: 1.6 nM
- IC50 [3, 23]: 5.2 nM
- Inhibition at 10µM (%) Replicate 1 ([4]; 10µM): 101.0%
- Inhibition at 10µM (%) Replicate 2 ([4]; 10µM): 98.2%
- Inhibition at 10µM (%) Average ([4]; 10µM, average of replicates): 99.6%
- IC50 [4, 21]: 7 nM
- IC50 [4, 22]: 7.4 nM
- IC50 [4, 23]: 6.6 nM
- Inhibition at 10µM (%) Replicate 1 ([5]; 10µM): 90.7%
- Inhibition at 10µM (%) Replicate 2 ([5]; 10µM): 97.1%
- Inhibition at 10µM (%) Average ([5]; 10µM, average of replicates): 93.9%
- IC50 [5, 21]: 10 nM
- IC50 [5, 22]: 8.2 nM
- IC50 [5, 23]: 12 nM
- Inhibition at 10µM (%) Replicate 1 ([6]; 10µM): 99.7%
- Inhibition at 10µM (%) Replicate 2 ([6]; 10µM): 100.6%
- Inhibition at 10µM (%) Average ([6]; 10µM, average of replicates): 100.1%
- IC50 [6, 21]: 8.3 nM
- IC50 [6, 22]: 10 nM
- IC50 [6, 23]: 6.5 nM
- Inhibition at 10µM (%) Replicate 1 ([7]; 10µM): 95.4%
- Inhibition at 10µM (%) Replicate 2 ([7]; 10µM): 93.6%
- Inhibition at 10µM (%) Average ([7]; 10µM, average of replicates): 94.5%
- IC50 [7, 21]: 120 nM
- IC50 [7, 22]: 100 nM
- IC50 [7, 23]: 150 nM
- Inhibition at 10µM (%) Replicate 1 ([8]; 10µM): 91.3%
- Inhibition at 10µM (%) Replicate 2 ([8]; 10µM): 98.8%
- Inhibition at 10µM (%) Average ([8]; 10µM, average of replicates): 95.1%
- IC50 [8, 21]: 370 nM
- IC50 [8, 22]: 434 nM
- IC50 [8, 23]: 297 nM
- Inhibition at 10µM (%) Replicate 1 [9]: 98.2%
- Inhibition at 10µM (%) Replicate 2 [9]: 100.7%
- Inhibition at 10µM (%) Average ([9]; average of replicates): 99.5%
- Inhibition at 10µM (%) Replicate 1 [10]: 88.8%
- Inhibition at 10µM (%) Replicate 2 [10]: 88.6%
- Inhibition at 10µM (%) Average ([10]; average of replicates): 88.7%
- Inhibition at 10µM (%) Replicate 1 [11]: 44.4%
- Inhibition at 10µM (%) Replicate 2 [11]: 42.5%
- Inhibition at 10µM (%) Average ([11]; average of replicates): 43.5%
- Inhibition at 10µM (%) Replicate 1 [12]: 42.5%
- Inhibition at 10µM (%) Replicate 2 [12]: 57.5%
- Inhibition at 10µM (%) Average ([12]; average of replicates): 50.0%
- Inhibition at 10µM (%) Replicate 1 ([13]; 10µM): 93.6%
- Inhibition at 10µM (%) Replicate 2 ([13]; 10µM): 93.4%
- Inhibition at 10µM (%) Average ([13]; 10µM, average of replicates): 93.5%
- IC50 [13, 21]: 250 nM
- IC50 [13, 22]: 151 nM
- IC50 [13, 23]: 350 nM
- Inhibition at 10µM (%) Replicate 1 ([14]; 10µM): 93.9%
- Inhibition at 10µM (%) Replicate 2 ([14]; 10µM): 95.6%
- Inhibition at 10µM (%) Average ([14]; 10µM, average of replicates): 94.7%
- IC50 [14, 21]: 300 nM
- IC50 [14, 22]: 250 nM
- IC50 [14, 23]: 350 nM
- Inhibition at 10µM (%) Replicate 1 ([15]; 10µM): 88.2%
- Inhibition at 10µM (%) Replicate 2 ([15]; 10µM): 91.4%
- IC50 [15, 21]: 13 nM
- IC50 [15, 22]: 8.9 nM
- IC50 [15, 23]: 18 nM
- Inhibition at 10µM (%) Replicate 1 ([16]; 10µM): 90.9%
- Inhibition at 10µM (%) Replicate 2 ([16]; 10µM): 91.8%
- Inhibition at 10µM (%) Average ([16]; 10µM, average of replicates): 91.3%
- IC50 [16, 21]: 10 nM
- IC50 [16, 22]: 6.5 nM
- IC50 [16, 23]: 13 nM
- Inhibition at 10µM (%) Replicate 1 ([17]; 10µM): 94.0%
- Inhibition at 10µM (%) Replicate 2 ([17]; 10µM): 101.0%
- Inhibition at 10µM (%) Average ([17]; 10µM, average of replicates): 97.5%
- IC50 [17, 21]: 130 nM
- IC50 [17, 22]: 86 nM
- IC50 [17, 23]: 174 nM
- Inhibition at 10µM (%) Replicate 1 [18]: 68.9%
- Inhibition at 10µM (%) Replicate 2 [18]: 74.8%
- Inhibition at 10µM (%) Replicate 1 ([19]; CDK19/C, 10µM): 88.7%
- Inhibition at 10µM (%) Replicate 2 ([19]; CDK19/C, 10µM): 89.0%
- Inhibition at 10µM (%) Average ([19]; CDK19/C, 10µM, average of replicates): 88.9%
- IC50 ([19]; read-out: IC50 (nM) Average*, CDK19/Y, n=3 average ± SEM, n=2 average to 2 significant figures): 240 nM
- IC50 ([19]; read-out: IC50 (nM) Replicate 1, CDK19/C): 354 nM
- IC50 ([19]; read-out: IC50 (nM) Replicate 2, CDK19/C): 119 nM
- Inhibition at 10µM (%) Replicate 1 ([20]; 10µM): 85.6%
- Inhibition at 10µM (%) Replicate 2 ([20]; 10µM): 87.4%
- Inhibition at 10µM (%) Average ([20]; 10µM, average of replicates): 86.5%
- IC50 ([20]; read-out: IC50 (nM) Average*, n=3 average ± SEM, n=2 average to 2 significant figures): 520 nM
- IC50 [20, 22]: 450 nM
- IC50 [20, 23]: 580 nM
